Experiment [1] deals with GST-MDM2 protein (aa 23-117) / biotinylated p53 wt peptide (p53-MDM2 interaction) (Homo sapiens (Human), UniProt Q00987). The experiment in a line: Mdm2-p53 Inhibition AlphaScreen. Particulars: 20 nM GST-MDM2 (aa 23-117), 20 nM biotinylated p53 wt peptide. The experiment is classed as binding. The procedure: Mdm2-p53 Inhibition AlphaScreen
15 μL of compound in 20% DMSO (serial pre-dilutions of compound are done in 100% DMSO) is pipetted to the wells of a white OptiPlate-96 (PerkinElmer). A mix consisting of 20 nM GST-MDM2 protein (aa 23-117) and 20 nM biotinylated p53 wt peptide (encompassing aa 16-27 of wt human p53, amino acid sequence […]-Ttds-Lys-Biotin, molecular weight 2132.56 g/mol) is prepared in assay buffer (50 mM Tris/HCl pH 7.2; 120 mM NaCl; 0.1% bovine serum albumin (BSA); 5 mM dithiothreitol (DTT); 1 mM ethylenediaminetetraacetic acid (EDTA); 0.01% Tween 20). 30 μL of the mix is added to the compound dilutions and incubated for 15 min at rt while gently shaking the plate at 300 rounds per minute (rpm). Subsequently, 15 μL of premixed AlphaLISA Glutathione Acceptor Beads and AlphaScreen Streptavidin Donor Beads from PerkinElmer (in assay buffer at a concentration of 10 μg/mL each) are added and the samples are incubated for 30 min at rt in the dark (shaking 300 rpm). Afterwards, the signal is measured in a PerkinElmer Envision HTS Multilabel Reader using the AlphaScreen protocol from PerkinElmer.
Each plate contains negative controls where biotinylated p53-peptide and GST-MDM2 are left out and replaced by assay buffer. Negative control values are entered as low basis value when using the software GraphPad Prism for calculations. […]

The subject of experiment [2] is human acute myeloid leukemia (AML) xenograft models harboring p53 wild-type. To be noted: cited from earlier work.
Experiment [3] concerns human prostate tumor xenograft models harboring p53 wild-type. Particulars: cited from earlier work.

Consider 2 compounds from patent publication US10882866B1, “Spiro[3H-indole-3,2′-pyrrolidin]-2(1H)-one compounds and derivatives as MDM2-P53 inhibitors” (Boehringer Ingelheim International GmbH, priority 2015, dated 2021).

GST-MDM2 protein (aa 23-117) / biotinylated p53 wt peptide (p53-MDM2 interaction), sequence (Q00987 23-117): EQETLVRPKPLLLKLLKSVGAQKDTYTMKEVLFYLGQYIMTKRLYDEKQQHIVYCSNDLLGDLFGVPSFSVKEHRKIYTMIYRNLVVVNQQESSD

As usually defined, the IC50 is the concentration needed to halve the response being measured. Lower therefore signals higher potency. In experiment [1], `COc1cc2c(cc1C(N)=O)nc1n2CC[C@H]2[C@@H]1[C@H](c1cccc(Cl)c1F)[C@]1(C(=O)Nc3cc(Cl)ccc31)N2CC1CC1` [Ib-234] came in with a half-inhibitory concentration (IC50) of 2 nM.
With `CCOc1cc(C(C)(C)C)ccc1C1=N[C@@](C)(c2ccc(Cl)cc2)[C@@](C)(c2ccc(Cl)cc2)N1C(=O)N1CCN(CCCS(C)(=O)=O)CC1` [RG7112], the “antiproliferative and proapoptotic activity” value in experiment [2] was “antiproliferative and proapoptotic activity of RG7112 has been observed”; in experiment [3], “antiproliferative and proapoptotic activity of RG7112 has been observed”.
